Measurements reported in patent US20130040908A1, “SUBSTITUTION DERIVATIVES OF N6-BENZYLADENOSINE-5' -MONOPHOSPHATE, METHODS OF PREPARATION THEREOF, USE THEREOF AS MEDICAMENTS, AND THERAPEUTIC PREPARATIONS CONTAINING THESE COMPOUNDS” (BIOAPEX, S.R.O., priority 2010, published 2013).

Assays:
[1] = test system: HL-60 (promyelocytic leukemia); assay: Calcein AM cytotoxicity assay, HL60; assay type: cell-based, human
Source text: (§1) Because toxic compounds negatively influence metabolic processes in cells, many standard cytotoxicity assays are based on measurement of metabolisation rate of various artificial substrates. Resulting product is then quantified e.g. by means of spectrometry. The assays can be easily modified for use in 96-well plates. For evaluation of cytotoxic effect of the novel substituted 9-substituted cytokinin derivatives of this invention, a microtiter assay based on quantification of metabolisation of Calcein AM was used. The assay is widely used in drug screening programs and in chemosensitivity testing. In the living cells, Calcein AM is enzymatically hydrolysed and accumulation of resulting calcein is manifested by green fluorescence.
(§2) Normal human fibroblasts BJ were used as a control for routine screening of the compounds. The cells were kept in Nunc/Corning 80 cm^2 plastic bottles and grown in cell culture medium (DMEM containing 5 g/l glucose, 2 mM glutamine, 100 U/ml penicillin, 100 μg/ml streptomycine, 10% fetal bovine serum and sodium hydrogencarbonate), the compounds were prepared according to the procedure of the present invention.
(§3) The cell suspensions were prepared and diluted according to the particular cell type and the expected target cell density (2.500-30.000 cells per well based on cell growth characteristics) and pippetted (80 μl) into 96-well plates. […] Tested compound was added in total volume of 20 μl of water at time zero. Usually, test compound was evaluated at six 3-fold dilutions. […] All drug concentrations were tested in triplicates. […] At the end of incubation period Calcein AM in PBS was added into final concentration of 1 μg/ml. After another 1 hour of incubation fluorescence (FD) was measured with the Labsystem FIA Reader Fluoroscan Ascent (UK). Growth inhibition (GI) was estimated using the following equitation: GI=(mean FDdrug exposed wells−mean FDblank)/(mean FDcontrol wells−mean FDblank)×100%.

[2] = test system: K-562 (human erythroleukemia); assay: Calcein AM cytotoxicity assay, K-562; assay type: cell-based
Source text: as §1, §2, §3

[3] = test system: CEM (T-lymphoblastoid leukemia); assay: Calcein AM cytotoxicity assay, CEM; assay type: cell-based; conditions: 72 hours
Source text: as §1, §2, §3

MCF-7 (breast carcinoma) = assay: Calcein AM cytotoxicity assay, MCF7; assay type: cell-based; conditions: MCF7, 72 hours
Source text: as §1, §2, §3

Human lymphocytes = assay: Immunosuppressive activity, 3H-thymidine incorporation in concanavalin A activated lymphocytes; assay type: cell-based; conditions: 72 hours, [3H]-TdR
Source text: One of the most important parameters of specific cellular immunity is the proliferative response of lymphocytes to antigens or polyclonal mitogens. The majority of normal mammalian peripheral lymphocytes comprise resting cells. Antigens or nonspecific polyclonal mitogens have the capacity to activate lymphoid cells and this is accompanied by dramatic changes of intracellular metabolism (mitochondrial activity, protein synthesis, nucleic acids synthesis, formation of blastic cells and cellular proliferation). […] Variety of in vitro assays was developed to measure proliferative response of lymphocytes. The most commonly used is ^3H-thymidine incorporation method.
During cell proliferation, DNA has to be replicated before the cell is divided into two daughter cells. This close association between cell doublings and DNA synthesis is very attractive for assessing cell proliferation. If labelled DNA precursors are added to the cell culture, cells that are about to divide incorporate the labelled nucleotide into their DNA. Traditionally, those assays usually involve the use of radiolabelled nucleosides, particularly tritiated thymidine ([^3H]-TdR). The amount of [^3H]-TdR incorporated into the cellular DNA is quantified by liquid scintillation counting. Human heparinized peripheral blood was obtained from healthy volunteers by cubital vein punction. The blood was diluted in PBS (1:3) and mononuclear cells were separated by centrifugation in Ficoll-Hypaque density gradient (Pharmacia, 1.077 g/ml) at 2200 rpm for 30 minutes. Following centrifugation, lymphocytes were washed in PBS and resuspended in cell culture medium (RMPI 1640, 2 mM glutamine, 100 U/ml penicillin, 100 μg/ml streptomycin, 10% fetal calf serum and sodium bicarbonate).
The cells were diluted at target density of 1.100.000 cells/ml and were added by pipette (180 μl) into 96-well microtiter plates. Four-fold dilutions of the intended test concentration were added at time zero in 20 μl aliquots to the microtiter plate wells. Usually, test compound was evaluated at six 4-fold dilutions. In routine testing, the highest well concentration was 266.7 μM. All drug concentrations were examined in duplicates. All wells with exception of unstimulated controls were activated with 50 of concanavalin A (25 μg/ml). Incubations of cells with test compounds lasted for 72 hours at 37° C., in 5% CO2 atmosphere and 100% humidity. At the end of incubation period, the cells were assayed by using the [^3H]-TdR:
Cell cultures were incubated with 0.5 μCi (20 μl of stock solution 500 μCi/ml per well for 6 hours at 37° C. and 5% CO2. The automated cell harvester was used to lyse cells in water and adsorb the DNA onto glass-fiber filters in the format of microtiter plate. The DNA incorporated [^3H]-TdR was retained on the filter while unincorporated material passes through. The filters were dried at room temperature overnight, sealed into a sample bag with 10-12 ml of scintillant. The amount of [^3H]-TdR present in each filter (in cpm) was determined by scintillation counting in a Betaplate liquid scintillation counter. The effective dose of immunosuppressant (ED) was calculated using the following equation: ED=(CCPMdrug exposed well/mean CCPMcontrol wells)×100%. The ED50 value, the drug concentration inhibiting proliferation of 50% of lymphocytes, was calculated from the obtained dose response curves.

[4] = test system: G-361 (human malignant melanoma); assay: Calcein AM cytotoxicity assay, G-361; assay type: cell-based; conditions: G-361, 72 hours
Source text: as §1, §2, §3

[5] = test system: HOS (human osteogenic sarcoma); assay: Calcein AM cytotoxicity assay, HOS; assay type: cell-based; conditions: 72 hours
Source text: as §1, §2, §3

Leukemia cell line CEM = assay: Flow cytometry of DNA fragmentation (sub-G1) in CEM cells; assay type: cell-based; conditions: IC50, triple IC50 and fivefold IC50
Description: One of the hallmarks of apoptosis is fragmentation of DNA. It can be measured by flowcytometry of the cells stained with propidium iodide. Because the fragmentation results in a loss of a fraction of the nuclear DNA, apoptotic cells have a lower DNA content than cells in G1 phase of cell cycle and can be detected as a subG1 peak in the histogram.
Leukemia cell line CEM was cultured in cell culture medium (DMEM containing 5 g/l glucose, 2 mM glutamine, 100 U/ml peniciline, 100 μg/ml streptomycine, 10% fetal calf serum and sodium bicarbonate). 24 hours before treatment, cell suspensions were centrifuged, diluted with fresh medium to concentration of 100000 cells per ml with fresh medium and pipetted in 10 ml aliquotes Petri dishes. After an incubation for a given time period, the cells were collected by centrifugation (4° C., 600 g), washed with PBS (4° C.) and fixed with 70% ethanol at −20° C. overnight. Low molecular weight DNA fragmentse were extracted with citrate buffer (11.36 g trisodium citrate dihydrate/1). The nuclei were stained with the solution of propidium iodide in PBS (10 μg/ml) containing RNase A (60 IU per sample). After 1 hour incubation the samples were analyzed by flowcytometry (excitation 488 nm, emission above 620 nm).

P388D1 leukemia = assay: In vivo anticancer activity, survival model of P388D1 leukemia; conditions: oral 250 mg/kg twice daily
Description: Screening of biological activity of compound 21 was performed on survival model of P388D1 leukemia transplanted intraperitoneally with 2.10^5 cells. DBA-2 mice were used as a host. One day following the leukemia transplantation, treatment with 21 was initiated. The drug was given orally by gastric gavages in total volume of 200 μl/dose twice daily at dose 250 mg/kg in two chemotherapy cycles (Days 1-3 and 7-9). The compound 21 was solubilized in 5% […], 30% polyethylene glycol 400, 65% tartar buffer (pH 3.0). Survival analysis of treated animals (10 mice/group) was preformed in comparison with vehicle treated mice using Kaplan-Meier method and the significance was evaluated by the log-rank test. Body weight of experimental animals was evaluated in parallel in order to reflect toxicity and efficacy of therapy. Comparative analysis of body weight was performed using non-parametric t-test.

caspase-3 = assay: Caspase-3 activity in CEM cells (Apo-ONE kit); assay type: cell-based; conditions: 10 μM, 12 and 24 hours
Description: In the course of apoptosis, caspase cascade is activated. Caspase-3 is an effector caspase that plays a role in the induction of some changes typical for apoptosis (chromatin condensation, DNA fragmentation). Leukemia cell line CEM was cultured in cell culture medium (DMEM containing 5 g/l glucose, 2 mM glutamine, 100 U/ml peniciline, 100 μg/ml streptomycine, 10% fetal calf serum and sodium bicarbonate). 24 hours before treatment, cell suspensions were centrifuged, diluted to concentration of 500000 cells per ml with fresh medium and pipetted in 50 μl, aliquotes into 96-well plate. After 12 and 24 hours of incubation with the test compound, the activity of caspase-3 was measured using commercial kit (Apo-ONE, Promega) that is based on quantification of hydrolysis of fluorogenic substrate Z-DEVD-R110 (excitation 480 nm/emission 520 nm). Reaction specificity was confirmed in a control experiment, when both test compound and caspase-3 inhibitor Ac-DEVD-CHO were added. All experiments were done in triplicate.

[6] = test system: Normal human fibroblasts BJ; assay: Calcein AM cytotoxicity assay, BJ fibroblasts; assay type: cell-based; conditions: 72 hours
Source text: as §1, §2, §3

O=P(O)(O)OC[C@H]1O[C@@H](n2cnc3c(NCc4cccc(F)c4)ncnc32)[C@H](O)[C@@H]1O [Compound 2, 6-(3-fluorobenzylamino)purine riboside-5′-monophosphate] was tested, and the GI50 ([1]; HL60, 72 hours) was 0.83 µM, the GI50 ([2]; K-562, 72 hours) was 7.2 µM and the GI50 [3] was 3.2 µM. For the same compound, the GI50 (MCF-7 (breast carcinoma)) was 14.7 µM, the “Human lymphocytes ED50” value (Human lymphocytes) was 11.5 µM and the GI50 [4] was 14.6 µM.
O=P(O)(O)OC[C@H]1O[C@@H](n2cnc3c(NCc4ccc(F)cc4)ncnc32)[C@H](O)[C@@H]1O [Compound 3, 6-(4-fluorobenzylamino)purine riboside-5′-monophosphate] gave a GI50 ([1]; HL60, 72 hours) of 0.69 µM, a GI50 ([2]; K-562, 72 hours) of 6.1 µM and a GI50 [5] of 12.1 µM. For the same compound, the GI50 [3] was 1.2 µM, the GI50 (MCF-7 (breast carcinoma)) was 12.3 µM and the “Human lymphocytes ED50” value (Human lymphocytes) was 13.4 µM.
Cc1cccc(CNc2ncnc3c2ncn3[C@@H]2O[C@H](COP(=O)(O)O)[C@@H](O)[C@H]2O)c1 [Compound 13, 6-(3-methylbenzylamino)purine riboside-5′-monophosphate] showed a GI50 ([1]; HL60, 72 hours) of 6.6 µM, a GI50 ([2]; K-562, 72 hours) of 160 µM and a GI50 [3] of 11.6 µM. The GI50 (MCF-7 (breast carcinoma)) was 71.7 µM and the “Human lymphocytes ED50” value (Human lymphocytes) was 7.5 µM.
Work on COc1ccccc1CNc1ncnc2c1ncn2[C@@H]1O[C@H](COP(=O)(O)O)[C@@H](O)[C@H]1O [Compound 15, 6-(2-methoxybenzylamino)purine riboside-5′-monophosphate] yielded a GI50 ([1]; HL60, 72 hours) of 2.1 µM, a GI50 ([2]; K-562, 72 hours) of 8.4 µM and a GI50 [5] of 20.1 µM. The GI50 [3] was 2.4 µM and the GI50 (MCF-7 (breast carcinoma)) was 113 µM.
For O=P(O)(O)OC[C@H]1O[C@@H](n2cnc3c(NCc4ccccc4O)ncnc32)[C@H](O)[C@@H]1O [Compound 21, 6-(2-hydroxybenzylamino)purine riboside-5′-monophosphate], the “DNA fragmentation (apoptotic sub-G1 fraction)” value (Leukemia cell line CEM) was “induction of DNA fragmentation”, the “Human lymphocytes ED50” value (Human lymphocytes) was 6.7 µM and the “body weight of treated animals” value (P388D1 leukemia) was “only slight reduction”. For the same compound, the tolerability in animals (P388D1 leukemia) was “good tolerability”, the mean survival time (P388D1 leukemia; Days 1-3 and 7-9, vehicle group 13.9 days) was 15.4 days and the “survival analysis (Kaplan-Meier, log-rank)” value (P388D1 leukemia; P=0.0409 versus vehicle) was “significantly better survival”. For the same compound, the “activity of caspase-3” value (caspase-3) was “activates caspase-3”.
For O=P(O)(O)OC[C@H]1O[C@@H](n2cnc3c(NCc4cccc(O)c4)ncnc32)[C@H](O)[C@@H]1O [Compound 22, 6-(3-hydroxybenzylamino)purine riboside-5′-monophosphate], the GI50 ([1]; HL60, 72 hours) was 19 µM, the GI50 ([2]; K-562, 72 hours) was 92.4 µM and the GI50 [3] was 49.8 µM. The GI50 (MCF-7 (breast carcinoma)) was 108 µM and the “Human lymphocytes ED50” value (Human lymphocytes) was 12.8 µM.
O=P(O)(O)OC[C@H]1O[C@@H](n2cnc3c(NCc4ccc(Cl)c(Cl)c4)ncnc32)[C@H](O)[C@@H]1O [Compound 25, 6-(3,4-dichlorobenzylamino)purine riboside-5′-monophosphate] was tested, and the GI50 ([1]; HL60, 72 hours) was 1 µM, the GI50 ([2]; K-562, 72 hours) was 6.1 µM and the GI50 [6] was 132 µM. It also gave a GI50 [5] of 112 µM, a GI50 [3] of 3.1 µM and a GI50 (MCF-7 (breast carcinoma)) of 82.8 µM.
In the case of Nc1ncnc2c1ncn2[C@@H]1O[C@H](COP(=O)(O)O)[C@@H](O)[C@H]1O [adenosine-5′-monophosphate, reference compound], the GI50 ([1]; Homo sapiens, HL-60, HL60, 72 hours) is reported as > 167 µM, the GI50 ([2]; Homo sapiens, K562, K-562, 72 hours) is reported as > 167 µM and the GI50 ([6]; Homo sapiens, Fibroblast) is reported as > 167 µM. The GI50 ([5]; Homo sapiens) was > 167 µM, the GI50 [3] was > 167 µM and the GI50 (MCF-7 (breast carcinoma); Homo sapiens) was > 167 µM. The GI50 ([4]; Homo sapiens) was > 167 µM.
In the case of “zeatin riboside-5′-monophosphate [reference compound]”, the GI50 ([1]; HL60, 72 hours) is reported as > 167 µM, the GI50 ([2]; K-562, 72 hours) is reported as > 167 µM and the GI50 [6] is reported as > 167 µM. For the same compound, the GI50 [5] was > 167 µM, the GI50 [3] was > 167 µM and the GI50 (MCF-7 (breast carcinoma)) was > 167 µM. For the same compound, the GI50 [4] was > 167 µM.
